Here are results for 18 compounds from US20260224571A1, “AZACYCLOALKANE COMPOUND AND PHARMACEUTICAL COMPOSITION, AND USE THEREOF” (Prime Gene Therapeutics Co., Ltd., priority 2023, published 2026).

Assay [1] concerns phosphorylation of myosin light chain T18/S19. The assay can be described thus: In Cell Western for phosphorylation of myosin light chain in A7r5 cells. It is filed as cell-based. The note with it: rat smooth muscle cell line A7r5, 1 hour with compound, phospho-MLC-T18/S19; read-out: cellular activity IC50. From the text:
The rat smooth muscle cell line A7r5 was used, and the A7r5 cell culture conditions were DMEM containing 10% FBS. Phspho-MLC-T18/S19 specific antibody and a second detection antibody were used to detect the phosphorylation level of myosin light chain by In Cell Western. Cells treated with positive compounds were used as positive controls, while the group without compounds but with compound solvents was used as negative controls. DRAQ5 stained cell nuclei were used as internal references. GraphPad Prism 7.0 software was used, and fitting was carried out by using a non-linear regression curve with varying slopes to determine the absolute IC50 value.
On the first day, A7r5 cells were resuspended in serum-free medium and seeded into 384 wells of PDL coated transparent black plates at a density of 5000 cells per well. Serum starvation culture was performed for 4 hours, and the cells were incubated with the compound in serum-free medium for 1 hour. 50 μL of 8% PFA (polyformaldehyde) was added to each well and fixed at room temperature for 1 hour. The liquid in the wells was discard and 90 μL of ice methanol was added to each well to permeabilize the cells at 4° C. for 1 hour. Then, PBST (0.1% Tween20-PBS) was added using an automatic separator to wash three times. After patting the plate for drying, 50 μL blocking solution was added to each well for sealing at room temperature for 1 hour. The phspho-MLC-T18/S19 specific antibody was diluted with the blocking solution at a ratio of 1:200. After adding 20 μL to each well, incubation was carried out overnight at 4° C. with a sealed film.
On the second day, the liquid in the wells was discarded and PBST was added using an automatic separator to wash the plate 5 times. After patting the plate for drying, the second detection antibody was diluted with blocking solution at a ratio of 1:800 and DRAQ5 at a ratio of 1:1000. After adding 20 μL to each well, incubation was carried out at room temperature for 1 hour. Then, the liquid in the wells was discarded and PBST was added using an automatic separator to wash the plate 3 times, followed by adding ddH2O to wash the plate 3 times. After patting the plate for drying, it was scanned using a LICOR Odyssey near-infrared imaging scanner.

The target in another assay is ROCK2 (Homo sapiens, UniProt O75116). As to the kind of experiment: ROCK2 kinase enzymatic activity (HTRF, STK2 substrate). The note with it: ROCK2 kinase reacted at room temperature for 30 minutes. It is filed as biochemical. From the text:
(§1) The kinase activity data was expressed by comparing the kinase activity of the test compound and that of the blank group (containing only DMSO), and the IC50 value was obtained by curve fitting using Prism software (GraphPad7.0).
In general terms: TR-FRET usually uses a lanthanide donor and a delayed reading to cut background.

Another assay concerns the target ROCK1 (Homo sapiens, UniProt Q13464). As to the kind of experiment: ROCK1 kinase enzymatic activity (HTRF, STK2 substrate). Particulars: ROCK1 kinase reacted at room temperature for 20 minutes. It is filed as biochemical.
Source text: as §1

Where a name gives a salt, the structure may show the parent alone. A value given as a limit tells only on which side of the number the result lay.

ROCK1, sequence (Q13464 whole entry): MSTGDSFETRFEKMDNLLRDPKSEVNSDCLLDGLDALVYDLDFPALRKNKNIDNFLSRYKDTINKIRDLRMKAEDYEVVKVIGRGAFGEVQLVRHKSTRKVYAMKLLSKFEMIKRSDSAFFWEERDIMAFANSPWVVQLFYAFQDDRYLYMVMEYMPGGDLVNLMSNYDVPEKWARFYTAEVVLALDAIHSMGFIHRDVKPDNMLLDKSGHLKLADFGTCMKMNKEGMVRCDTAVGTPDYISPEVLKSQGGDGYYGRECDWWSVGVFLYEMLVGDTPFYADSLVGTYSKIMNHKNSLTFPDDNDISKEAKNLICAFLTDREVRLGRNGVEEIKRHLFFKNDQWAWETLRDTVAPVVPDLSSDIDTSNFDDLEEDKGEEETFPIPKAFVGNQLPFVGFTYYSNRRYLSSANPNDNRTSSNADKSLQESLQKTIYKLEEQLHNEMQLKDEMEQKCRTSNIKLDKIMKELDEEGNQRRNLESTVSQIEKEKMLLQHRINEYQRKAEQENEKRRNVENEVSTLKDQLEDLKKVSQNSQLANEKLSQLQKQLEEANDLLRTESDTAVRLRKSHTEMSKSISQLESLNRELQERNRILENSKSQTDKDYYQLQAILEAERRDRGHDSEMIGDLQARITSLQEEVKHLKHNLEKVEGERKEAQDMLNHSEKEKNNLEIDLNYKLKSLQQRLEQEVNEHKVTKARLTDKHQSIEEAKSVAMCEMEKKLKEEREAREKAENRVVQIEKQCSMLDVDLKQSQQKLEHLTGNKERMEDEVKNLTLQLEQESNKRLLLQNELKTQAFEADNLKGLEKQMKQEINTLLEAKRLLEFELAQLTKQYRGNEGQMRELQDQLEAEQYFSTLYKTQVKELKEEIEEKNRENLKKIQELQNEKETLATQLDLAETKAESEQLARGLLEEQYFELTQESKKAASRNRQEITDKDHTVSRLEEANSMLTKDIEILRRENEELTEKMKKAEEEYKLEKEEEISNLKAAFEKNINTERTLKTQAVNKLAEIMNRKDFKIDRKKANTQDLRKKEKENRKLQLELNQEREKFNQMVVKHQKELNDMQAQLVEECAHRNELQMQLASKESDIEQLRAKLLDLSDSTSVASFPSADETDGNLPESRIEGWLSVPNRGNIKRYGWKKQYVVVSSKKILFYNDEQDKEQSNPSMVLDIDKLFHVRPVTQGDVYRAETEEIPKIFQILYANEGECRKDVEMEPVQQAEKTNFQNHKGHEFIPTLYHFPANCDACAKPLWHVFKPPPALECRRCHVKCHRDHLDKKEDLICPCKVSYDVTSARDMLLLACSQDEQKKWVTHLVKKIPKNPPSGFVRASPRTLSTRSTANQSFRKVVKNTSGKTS
ROCK2, sequence (O75116 whole entry): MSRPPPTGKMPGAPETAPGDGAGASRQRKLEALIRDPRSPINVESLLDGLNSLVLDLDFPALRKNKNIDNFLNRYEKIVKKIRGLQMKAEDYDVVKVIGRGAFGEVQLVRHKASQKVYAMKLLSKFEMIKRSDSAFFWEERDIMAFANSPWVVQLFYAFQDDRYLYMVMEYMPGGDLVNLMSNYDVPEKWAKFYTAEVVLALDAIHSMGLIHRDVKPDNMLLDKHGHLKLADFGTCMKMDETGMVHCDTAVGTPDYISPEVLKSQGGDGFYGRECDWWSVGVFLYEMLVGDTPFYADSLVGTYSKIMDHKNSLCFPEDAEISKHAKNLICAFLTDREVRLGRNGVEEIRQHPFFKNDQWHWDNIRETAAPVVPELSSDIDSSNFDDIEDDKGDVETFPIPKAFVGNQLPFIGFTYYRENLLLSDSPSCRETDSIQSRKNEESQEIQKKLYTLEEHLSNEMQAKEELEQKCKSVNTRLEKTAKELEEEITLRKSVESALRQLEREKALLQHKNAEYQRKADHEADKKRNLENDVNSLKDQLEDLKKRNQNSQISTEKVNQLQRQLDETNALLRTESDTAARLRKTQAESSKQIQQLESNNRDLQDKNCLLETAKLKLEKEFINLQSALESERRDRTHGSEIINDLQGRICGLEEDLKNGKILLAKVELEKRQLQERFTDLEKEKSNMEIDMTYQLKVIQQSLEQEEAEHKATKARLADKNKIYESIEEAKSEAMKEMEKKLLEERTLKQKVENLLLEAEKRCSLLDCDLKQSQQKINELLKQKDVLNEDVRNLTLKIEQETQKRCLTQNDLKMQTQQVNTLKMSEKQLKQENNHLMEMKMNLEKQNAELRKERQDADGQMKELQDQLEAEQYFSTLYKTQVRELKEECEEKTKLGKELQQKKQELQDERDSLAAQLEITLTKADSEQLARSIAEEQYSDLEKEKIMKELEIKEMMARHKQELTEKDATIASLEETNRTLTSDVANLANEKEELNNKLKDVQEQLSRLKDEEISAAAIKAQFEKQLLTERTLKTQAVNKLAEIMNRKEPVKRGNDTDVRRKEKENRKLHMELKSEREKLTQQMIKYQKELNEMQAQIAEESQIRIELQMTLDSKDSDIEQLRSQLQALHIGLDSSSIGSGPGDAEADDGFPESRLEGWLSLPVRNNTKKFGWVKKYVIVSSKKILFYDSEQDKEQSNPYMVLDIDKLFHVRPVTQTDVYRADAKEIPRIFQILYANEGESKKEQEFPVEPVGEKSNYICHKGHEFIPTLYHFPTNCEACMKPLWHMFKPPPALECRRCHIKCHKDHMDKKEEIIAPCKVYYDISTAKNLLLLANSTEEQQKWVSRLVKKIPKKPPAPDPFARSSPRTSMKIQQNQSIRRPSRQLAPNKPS

Regarding `N#CCC1(n2cc(-c3ncnc4[nH]ccc34)c(N)n2)CN(C(=O)[C@H]2C[C@@H]2F)C1` [Example 31, 2-(3-(3-amino-4-(7H-pyrrolo[2,3-d]pyrimidin-4-yl)-1H-pyrazol-1-yl)-1-((1R, 2S)-2-fluorocyclopropane-1-carbonyl)azetidine-3-yl)acetonitrile], the results for the IC50 (in assay [1]; against ROCK2; at ROCK1) were 381 nM, less than 5 nM and less than 5 nM, respectively.

Consider `COc1nsc(NC(=O)N2CC(CC#N)(n3cc(-c4ncnc5[nH]ccc45)c(N)n3)C2)n1` [Example 19, 3-(3-amino-4-(7H-pyrrolo[2,3-d]pyrimidin-4-yl)-1H-pyrazol-1-yl)-3-(cyanomethyl)-N-(3-methoxy-1,2,4-thiadiazol-5-yl)azetidine-1-formamide], for which the concentration for half-maximal inhibition (IC50) (commonly the concentration that inhibits the measured activity by half) in assay [1] is greater than 10000 nM; on ROCK2, less than 10 nM; at ROCK1, less than 10 nM.

On to `CS(=O)(=O)CS(=O)(=O)N1CC(CC#N)(n2cc(-c3ncnc4[nH]ccc34)c(N)n2)C1` [Example 8], for which the IC50 was 152 nM in assay [1], less than 5 nM on ROCK2 and less than 5 nM against ROCK1.

Regarding `N#CCC1(n2cc(-c3ncnc4[nH]ccc34)c(N)n2)CN(S(N)(=O)=O)C1` [Example 45, 3-(3-amino-4-(7H-pyrrolo[2,3-d]pyrimidin-4-yl)-1H-pyrazol-1-yl)-3-(cyanomethyl)azetidine-1-sulfonamide], the IC50 was 579 nM in assay [1], less than 5 nM at ROCK2 and less than 5 nM on ROCK1.

For the compound `CC(=O)Nc1nn(C2(CC#N)CN(S(=O)(=O)C(F)(F)F)C2)cc1-c1ncnc2[nH]ccc12` [Example 5], the 50% inhibitory concentration (IC50) was 951 nM in assay [1], less than 5 nM against ROCK2 and less than 5 nM against ROCK1.

As for `N#CCNC(=O)N1CC(CC#N)(n2cc(-c3ncnc4[nH]ccc34)c(N)n2)C1` [Example 18, 3-(3-amino-4-(7H-pyrrolo[2,3-d]pyrimidin-4-yl)-1H-pyrazol-1-yl)-N,3-bis(cyanomethyl)azetidine-1-formamide], the IC50 in assay [1] is 4110 nM; on ROCK2, less than 5 nM; against ROCK1, less than 5 nM.

Turning to `CS(=O)(=O)N1CCC(CC#N)(n2cc(-c3ncnc4[nH]ccc34)c(N)n2)C1` (stereo not drawn) [Example 3, 2-(3-(3-amino-4-(7H-pyrrolo[2,3-d]pyrimidin-4-yl)-1H-pyrazol-1-yl)-1-(methylsulfonyl)pyrrolidin-3-yl)acetonitrile], the 50% inhibitory concentration (IC50) is 178 nM in assay [1], less than 5 nM against ROCK2 and less than 5 nM at ROCK1.

Take `N#CCNS(=O)(=O)N1CC(CC#N)(n2cc(-c3ncnc4[nH]ccc34)c(N)n2)C1` [Example 50, 3-(3-amino-4-(7H-pyrrolo[2,3-d]pyrimidin-4-yl)-1H-pyrazol-1-yl)-N,3-bis(cyanomethyl)azetidine-1-sulfonamide]: the IC50 is 98 nM in assay [1], less than 10 nM at ROCK2 and less than 10 nM against ROCK1.

Consider `CCS(=N)(=O)N1CC(CC#N)(n2cc(-c3ncnc4[nH]ccc34)c(N)n2)C1` (stereo not drawn) [Example 38, 2-(3-(3-amino-4-(7H-pyrrolo[2,3-d]pyrimidin-4-yl)-1H-pyrazol-1-yl)-1-(ethylsulfonylimino)azetidine-3-yl)acetonitrile], for which the IC50 was 3130 nM in assay [1], less than 5 nM at ROCK2 and less than 5 nM on ROCK1.

As for `CN(C)CCNc1nn(C2(CC#N)CN(S(=O)(=O)C(F)(F)F)C2)cc1-c1ncnc2[nH]ccc12` [Example 7, 2-(3-(3-((2-(dimethylamino)ethyl)amino)-4-(7H-pyrrolo[2,3-d]pyrimidin-4-yl)-1H-pyrazol-1-yl)-1-((trifluoromethyl)sulfonyl)azetidine-3-yl)acetonitrile], the IC50 in assay [1] was 132 nM; on ROCK2, less than 5 nM; on ROCK1, less than 5 nM.

On to `CCNS(=O)(=O)N1CC(CC#N)(n2cc(-c3ncnc4[nH]ccc34)c(N)n2)C1` [Example 41, 3-(3-amino-4-(7H-pyrrolo[2,3-d]pyrimidin-4-yl)-1H-pyrazol-1-yl)-3-(cyanomethyl)-N-ethylazetidine-1-sulfonamide], for which the IC50 in assay [1] was 91 nM; at ROCK2, less than 10 nM; against ROCK1, less than 10 nM.

As for `CN=S(C)(=O)N1CC(CC#N)(n2cc(-c3ncnc4[nH]ccc34)c(N)n2)C1` (stereo not drawn) [Example 37, 2-(3-(3-amino-4-(7H-pyrrolo[2,3-d]pyrimidin-4-yl)-1H-pyrazol-1-yl)-1-(N,S-dimethylsulfonylimino)azetidine-3-yl)acetonitrile], the results for the IC50 (in assay [1]; against ROCK2; on ROCK1) were 1590 nM, less than 50 nM and less than 50 nM, respectively.

With `N#CCC1(n2cc(-c3ncnc4[nH]ccc34)c(C(N)=O)n2)CN(C(=O)NCC(F)(F)F)C1` [Example 61, 1-(3-(cyanomethyl)-1-((2,2,2-trifluoroethyl)carbamoyl)azetidine-3-yl)-4-(7H-pyrrolo[2,3-d]pyrimidin-4-yl)-1H-pyrazol-3-formamide], the results for the IC50 (in assay [1]; against ROCK2; against ROCK1) were greater than 10000 nM, greater than 100 nM and greater than 100 nM, respectively.

Take `N#CCC1(n2cc(-c3ncnc4[nH]ccc34)c(O)n2)CN(C(=O)NCC(F)(F)F)C1` [Example 55, 3-(cyanomethyl)-3-(3-hydroxyl-4-(7H-pyrrolo[2,3-d]pyrimidin-4-yl)-1H-pyrazol-1-yl)-N-(2,2,2-trifluoroethyl)azetidine-1-formamide]: the results for the concentration for half-maximal inhibition (IC50) (in assay [1]; against ROCK2; at ROCK1) were greater than 10000 nM, greater than 100 nM and less than 50 nM, respectively.

Consider `N#CCC1(n2cc(-c3ncnc4[nH]ccc34)c(N)n2)CN(S(=O)(=O)NCC(F)(F)F)C1` [Example 40, 3-(3-amino-4-(7H-pyrrolo[2,3-d]pyrimidin-4-yl)-1H-pyrazol-1-yl)-3-(cyanomethyl)-N-(2,2,2-trifluoroethyl)azetidine-1l-sulfonamide], for which the IC50 in assay [1] is 1570 nM; at ROCK2, less than 10 nM; at ROCK1, less than 10 nM.

On to `CCNc1nn(C2(CC#N)CN(S(=O)(=O)C(F)(F)F)C2)cc1-c1ncnc2[nH]ccc12` [Example 6, 2-(3-(3-(ethylamino)-4-(7H-pyrrolo[2,3-d]pyrimidin-4-yl)-1H-pyrazol-1-yl)-1-((trifluoromethyl)sulfonyl)azetidine-3-yl)acetonitrile], for which the IC50 in assay [1] is 181 nM; against ROCK2, less than 5 nM; on ROCK1, less than 5 nM.

With `C[C@@H](N)CS(=O)(=O)N1CC(CC#N)(n2cc(-c3ncnc4[nH]ccc34)c(N)n2)C1` [Example 88, (R)-2-(3-(3-amino-4-(7H-pyrrolo[2,3-d]pyrimidin-4-yl)-1H-pyrazol-1-yl)-1-((2-aminopropyl)sulfonyl)azetidine-3-yl)acetonitrile trifluoroacetate salt], the figures for the IC50 (in assay [1]; on ROCK2; against ROCK1) were 826 nM, less than 5 nM and less than 5 nM, respectively.

For the compound `N#CCC1(n2cc(-c3ncnc4[nH]ccc34)c(N)n2)CN(C(=O)[C@@H]2CC2(F)F)C1` [Example 34, (S)-2-(3-(3-amino-4-(7H-pyrrolo[2,3-d]pyrimidin-4-yl)-1H-pyrazol-1-yl)-1-(2,2-difluorocyclopropane-1-carbonyl)azetidine-3-yl)acetonitrile], the concentration for half-maximal inhibition (IC50) was 551 nM in assay [1], less than 10 nM on ROCK2 and less than 10 nM against ROCK1.
